The values below come from PubChem BioAssay AID1745844 (Carcinogenic Potency Database (CPDB), 2022).

“And” between values parts separate entries of the source, which are not always exact repeats. Identical values can stand only once. The source made the active and inactive calls. The rule behind the calls is not given here.

The test system of the series is rodent lifetime carcinogenesis bioassay, tumor incidence TD50. In words: carcinogenic potency in animals, long-term in vivo studies, CPDB compilation (AID 1745844).

Turning to `CN(C)c1ccccc1`, the TD50 is, setting by setting: (mouse, strain B6C3F1, females, by gavage, site: any site (literature study), lesion: several types, types named in the paper, dosed 103 weeks, study length 104 weeks) 108 mg/kg/day; (mouse, strain B6C3F1, females, by gavage, site: forestomach, lesion: squamous-cell papilloma, dosed 103 weeks, study length 104 weeks) 99.3 mg/kg/day; (mouse, strain B6C3F1, females, by gavage, site: liver, lesion: hepatocellular adenoma + hepatocellular carcinoma + neoplastic nodule, dosed 103 weeks, study length 104 weeks) 163 mg/kg/day; (mouse, strain B6C3F1, females, by gavage, site: lung, lesion: alveolar/bronchiolar adenoma + alveolar/bronchiolar carcinoma, dosed 103 weeks, study length 104 weeks) 276 mg/kg/day; (mouse, strain B6C3F1, males, by gavage, site: any site (literature study), lesion: several types, types named in the paper, dosed 103 weeks, study length 104 weeks) 489 mg/kg/day (inactive); (mouse, strain B6C3F1, males, by gavage, site: liver, lesion: hepatocellular adenoma + hepatocellular carcinoma + neoplastic nodule, dosed 103 weeks, study length 104 weeks) 216 mg/kg/day. Besides, the TD50 reads like this: (mouse, strain B6C3F1, males, by gavage, site: lung, lesion: alveolar/bronchiolar adenoma + alveolar/bronchiolar carcinoma, dosed 103 weeks, study length 104 weeks) 102 mg/kg/day; (rat, strain Fischer 344, males, by gavage, site: any site (literature study), lesion: several types, types named in the paper, dosed 103 weeks, study length 104 weeks) 93.2 mg/kg/day; (rat, strain Fischer 344, males, by gavage, site: splenic red pulp, lesion: osteosarcoma + sarcoma, NOS, dosed 103 weeks, study length 104 weeks) 125 mg/kg/day; (rat, strain Fischer 344, males, by gavage, site: splenic red pulp, lesion: sarcoma, NOS, dosed 103 weeks, study length 104 weeks) 175 mg/kg/day. In addition, for the setting “rat, strain Fischer 344, females, by gavage, site: any site (literature study), lesion: several types, types named in the paper, dosed 103 weeks, study length 104 weeks”, the carcinogen call is “negative (inactive)”.
Consider `C=CCOc1ccc(CC(=O)O)cc1Cl`, for which the carcinogen call runs as follows: (rat, strain Wistar, females, in feed, site: any site (literature study), lesion: several types, types named in the paper, dosed 104 weeks, study length 104 weeks) “negative (inactive)”; (rat, strain Wistar, females, in feed, site: liver, lesion: several types, types named in the paper, dosed 104 weeks, study length 104 weeks) “negative (inactive)”; (rat, strain Wistar, males, in feed, site: any site (literature study), lesion: several types, types named in the paper, dosed 104 weeks, study length 104 weeks) “negative (inactive)”; (rat, strain Wistar, males, in feed, site: liver, lesion: several types, types named in the paper, dosed 104 weeks, study length 104 weeks) “negative (inactive)”. For the same molecule, the TD50 (rat, strain Wistar, females, in feed, site: ovary, lesion: several types, types named in the paper, dosed 104 weeks, study length 104 weeks) was 390 mg/kg/day (inactive).
Regarding `O=NN1CCCC[C@H]1c1cccnc1`, the TD50 was 17.7 mg/kg/day (rat, strain Chester Beatty albino, females, in drinking water, site: esophagus, lesion: benign tumor, dosed 73 weeks, study length 73 weeks); 12.9 mg/kg/day (rat, strain Chester Beatty albino, females, in drinking water, site: esophagus, lesion: several types, types named in the paper, dosed 73 weeks, study length 73 weeks); 413 mg/kg/day (rat, strain Chester Beatty albino, females, in drinking water, site: esophagus, lesion: squamous-cell carcinoma, dosed 73 weeks, study length 73 weeks); 28.1 mg/kg/day (rat, strain Chester Beatty albino, males, in drinking water, site: esophagus, lesion: benign tumor, dosed 73 weeks, study length 73 weeks); 11 mg/kg/day (rat, strain Chester Beatty albino, males, in drinking water, site: esophagus, lesion: several types, types named in the paper, dosed 73 weeks, study length 73 weeks); 86 mg/kg/day (rat, strain Chester Beatty albino, males, in drinking water, site: esophagus, lesion: squamous-cell carcinoma, dosed 73 weeks, study length 73 weeks).
`Nc1c(Cl)cc(Cl)cc1Cl`: the TD50 was 914 mg/kg/day (inactive) (mouse, strain CD-1 HaM/ICR, females, in feed, site: any site (literature study), lesion: several types, types named in the paper, dosed 68 weeks, study length 77 weeks); 927 mg/kg/day (inactive) (mouse, strain CD-1 HaM/ICR, females, in feed, site: liver, lesion: several types, types named in the paper, dosed 68 weeks, study length 77 weeks); 1370 mg/kg/day (inactive) (mouse, strain CD-1 HaM/ICR, females, in feed, site: lung, lesion: several types, types named in the paper, dosed 68 weeks, study length 77 weeks); 273 mg/kg/day and 259 mg/kg/day (mouse, strain CD-1 HaM/ICR, males, in feed, site: all sites, lesion: all vascular tumors, dosed 68 weeks, study length 77 weeks); 206 mg/kg/day (mouse, strain CD-1 HaM/ICR, males, in feed, site: any site (literature study), lesion: several types, types named in the paper, dosed 68 weeks, study length 77 weeks); 560 mg/kg/day (mouse, strain CD-1 HaM/ICR, males, in feed, site: liver, lesion: hepatoma, dosed 68 weeks, study length 77 weeks). Further, the TD50 is, setting by setting: (mouse, strain CD-1 HaM/ICR, males, in feed, site: liver, lesion: several types, types named in the paper, dosed 68 weeks, study length 77 weeks) 452 mg/kg/day; (mouse, strain CD-1 HaM/ICR, males, in feed, site: lung, lesion: several types, types named in the paper, dosed 68 weeks, study length 77 weeks) 385 mg/kg/day (inactive); (rat, strain Charles River CD (Sprague-Dawley), males, in feed, site: any site (literature study), lesion: several types, types named in the paper, dosed 77 weeks, study length 116 weeks) 45.9 mg/kg/day (inactive). Further, the carcinogen call (rat, strain Charles River CD (Sprague-Dawley), males, in feed, site: liver, lesion: several types, types named in the paper, dosed 77 weeks, study length 116 weeks) is “negative (inactive)”.
As to `CN(C)CCOC(C)(c1ccccc1)c1ccccn1` (stereo not drawn), the TD50 was 633 mg/kg/day (mouse, strain B6C3F1, females, in feed, site: liver, lesion: hepatocellular adenoma, dosed 104 weeks, study length 104 weeks); 78.7 mg/kg/day (mouse, strain B6C3F1, females, in feed, site: lung, lesion: alveolar/bronchiolar adenoma, dosed 65 weeks, study length 65 weeks); 170 mg/kg/day (mouse, strain B6C3F1, females, in feed, site: lung, lesion: several types, types named in the paper, dosed 104 weeks, study length 104 weeks); 740 mg/kg/day (mouse, strain B6C3F1, females, in feed, site: thyroid gland, lesion: follicular-cell adenoma, dosed 104 weeks, study length 104 weeks); 672 mg/kg/day (mouse, strain B6C3F1, females, in feed, site: thyroid gland, lesion: follicular-cell tumor, dosed 104 weeks, study length 104 weeks); 77.8 mg/kg/day (mouse, strain B6C3F1, males, in feed, site: liver, lesion: hepatocellular adenoma, dosed 65 weeks, study length 65 weeks). Besides, the TD50 (mouse, strain B6C3F1, males, in feed, site: liver, lesion: hepatocellular adenoma, dosed 104 weeks, study length 104 weeks) is 144 mg/kg/day; the TD50 (mouse, strain B6C3F1, males, in feed, site: liver, lesion: several types, types named in the paper, dosed 104 weeks, study length 104 weeks) was 125 mg/kg/day; the TD50 (mouse, strain B6C3F1, males, in feed, site: lung, lesion: alveolar/bronchiolar adenoma, dosed 65 weeks, study length 65 weeks) is 3180 mg/kg/day; the TD50 (mouse, strain B6C3F1, males, in feed, site: thyroid gland, lesion: follicular-cell adenoma, dosed 104 weeks, study length 104 weeks) was 273 mg/kg/day; the TD50 (rat, strain Fischer 344, males, in feed, site: all sites, lesion: mononuclear-cell leukemia, dosed 104 weeks, study length 104 weeks) was determined as 271 mg/kg/day; the TD50 (rat, strain Fischer 344, males, in feed, site: liver, lesion: hepatocellular adenoma, dosed 65 weeks, study length 65 weeks) came out at 469 mg/kg/day. The TD50 is, setting by setting: (rat, strain Fischer 344, males, in feed, site: liver, lesion: hepatocellular adenoma, dosed 104 weeks, study length 104 weeks) 3270 mg/kg/day; (rat, strain Fischer 344, males, in feed, site: liver, lesion: hepatocellular carcinoma, dosed 104 weeks, study length 104 weeks) 3270 mg/kg/day; (rat, strain Fischer 344, males, in feed, site: liver, lesion: several types, types named in the paper, dosed 104 weeks, study length 104 weeks) 1610 mg/kg/day. For the setting “rat, strain Fischer 344, females, in feed, site: liver, lesion: several types, types named in the paper, dosed 104 weeks, study length 104 weeks”, the carcinogen call was “negative (inactive)”.

Usually TD50 stands for the dose at which the toxic effect under study appears in half of the subjects.
